According to US11084790B2, “Insoluble complex or solvate thereof, pharmaceutical composition and use thereof” (Fruithy Holdings Limited, priority 2017, dated 2021):
Counter-ions that a name gives are not always drawn.

Legend:
[1] = Test on the solubility in a simulated body fluid; format: physicochemical
Experimental: Test on the Solubility in a Simulated Body Fluid
The concentration of the drug dissolved in the PBS buffered solution was determined with an HPLC-a method.

[2] = Test on the solubility in media at different pH; format: physicochemical
Experimental: Test on the Solubility in Media at Different pH
About 200 mg of solid powders of Preparation Example 10 and Preparation Example 15 were added in a 500 mL phosphate buffered solution at different pH values (50 mmol/L, pH 5.5, pH 6.5, pH 7.4, and pH 8.0) respectively, placed into a dissolution tester, kept at a constant temperature of 37° C., and paddle stirred at 50 rpm for 72 hours. Appropriate amounts of the suspension were taken out at 15 min, 30 min, 45 min, 1 h, 2 h, 4 h, 6 h, 8 h, 24 h, 32 h, 48 h, and 72 h respectively, and centrifuged immediately (15000 rpm, 5 min). The supernatant was diluted with methanol by a factor of two. The concentration of the drug dissolved in the PB buffer solution was determined with an HPLC-b method.

[3] = Systemic pharmacokinetic study of a bis(bupivacaine) pamoate suspension after a single subcutaneous injection at three points in a hind limb in SD rats; format: in vivo; conditions: male, rat, sc, single subcutaneous injection at three points in left hind limb, 5 mg/kg, bupivacaine in blood
Text: Systemic Pharmacokinetic Study of a bis(bupivacaine) pamoate Suspension After a Single Subcutaneously Injection at Three Points in a Hind Limb in SD Rats
The systemic absorption and exposure of bis(bupivacaine) pamoate in a rat body was further evaluated by performing a systemic pharmacokinetic research on SD rats which were subcutaneously injected with a bis(bupivacaine) pamoate suspension (Formulation Example 3) once at three points in a left hind limb and comparing with a commercial bupivacaine hydrochloride injection. The long-acting sustained release feature of bis(bupivacaine) pamoate was verified by comparing the pharmacokinetic parameters of bis(bupivacaine) pamoate with a commercial formulation.
In the example, 20 healthy SD male rats (Beijing Vital River Laboratory Animal Technology Co., Ltd., 190 to 210 g) were chosen and randomly divided into 2 groups, i.e., a group for Formulation Example 3 and a group for the commercial bupivacaine hydrochloride injection (Wuhu Kangqi Pharmaceutical Co., Ltd.) group, with 10 animals in each group.
About 0.5 mL of venous blood was collected at 30 min, 1 h, 2 h, 6 h, 8 h, 24 h, 48 h, 72 h and 96 h respectively after administration for both groups of laboratory animals for determining the blood drug concentration of bupivacaine.

[4] = 0.01 M PBS pH 7.4, 37° C., 5 min
[5] = 0.01 M PBS pH 7.4, 37° C., 15 min
[6] = 0.01 M PBS pH 7.4, 37° C., 30 min
[7] = 0.01 M PBS pH 7.4, 37° C., 24 h
[8] = phosphate buffer pH 5.5, 37° C., 0.25 h
[9] = phosphate buffer pH 5.5, 37° C., 0.5 h
[10] = phosphate buffer pH 5.5, 37° C., 0.75 h
[11] = phosphate buffer pH 5.5, 37° C., 1 h
[12] = phosphate buffer pH 5.5, 37° C., 2 h
[13] = phosphate buffer pH 5.5, 37° C., 4 h
[14] = phosphate buffer pH 5.5, 37° C., 6 h
[15] = phosphate buffer pH 5.5, 37° C., 8 h
[16] = phosphate buffer pH 5.5, 37° C., 24 h
[17] = phosphate buffer pH 5.5, 37° C., 32 h
[18] = phosphate buffer pH 5.5, 37° C., 48 h
[19] = phosphate buffer pH 5.5, 37° C., 72 h
[20] = phosphate buffer pH 6.5, 37° C., 0.25 h
[21] = phosphate buffer pH 6.5, 37° C., 0.5 h
[22] = phosphate buffer pH 6.5, 37° C., 0.75 h
[23] = phosphate buffer pH 6.5, 37° C., 1 h
[24] = phosphate buffer pH 6.5, 37° C., 2 h
[25] = phosphate buffer pH 6.5, 37° C., 4 h
[26] = phosphate buffer pH 6.5, 37° C., 6 h
[27] = phosphate buffer pH 6.5, 37° C., 8 h
[28] = phosphate buffer pH 6.5, 37° C., 24 h
[29] = phosphate buffer pH 6.5, 37° C., 32 h
[30] = phosphate buffer pH 6.5, 37° C., 48 h
[31] = phosphate buffer pH 6.5, 37° C., 72 h
[32] = phosphate buffer pH 7.4, 37° C., 0.25 h
[33] = phosphate buffer pH 7.4, 37° C., 0.5 h
[34] = phosphate buffer pH 7.4, 37° C., 0.75 h
[35] = phosphate buffer pH 7.4, 37° C., 1 h
[36] = phosphate buffer pH 7.4, 37° C., 2 h
[37] = phosphate buffer pH 7.4, 37° C., 4 h
[38] = phosphate buffer pH 7.4, 37° C., 6 h
[39] = phosphate buffer pH 7.4, 37° C., 8 h
[40] = phosphate buffer pH 7.4, 37° C., 24 h
[41] = phosphate buffer pH 7.4, 37° C., 32 h
[42] = phosphate buffer pH 7.4, 37° C., 48 h
[43] = phosphate buffer pH 7.4, 37° C., 72 h
[44] = phosphate buffer pH 8.0, 37° C., 0.25 h
[45] = phosphate buffer pH 8.0, 37° C., 0.5 h
[46] = phosphate buffer pH 8.0, 37° C., 0.75 h
[47] = phosphate buffer pH 8.0, 37° C., 1 h
[48] = phosphate buffer pH 8.0, 37° C., 2 h
[49] = phosphate buffer pH 8.0, 37° C., 4 h
[50] = phosphate buffer pH 8.0, 37° C., 6 h
[51] = phosphate buffer pH 8.0, 37° C., 8 h
[52] = phosphate buffer pH 8.0, 37° C., 24 h
[53] = phosphate buffer pH 8.0, 37° C., 32 h
[54] = phosphate buffer pH 8.0, 37° C., 48 h
[55] = phosphate buffer pH 8.0, 37° C., 72 h

CCCCN1CCCCC1C(=O)Nc1c(C)cccc1C.CCCCN1CCCCC1C(=O)Nc1c(C)cccc1C.O=C(O)c1cc2ccccc2c(Cc2c(O)c(C(=O)O)cc3ccccc23)c1O [Preparation Example 15, bis(bupivacaine) pamoate]
Compound concentration: Bupivacaine [1, 4]: 112.8 µM | Compound concentration: Pamoic acid [1, 4]: 57.2 µM | Compound concentration: Bupivacaine [1, 5]: 153.8 µM | Compound concentration: Pamoic acid [1, 5]: 77.9 µM | Compound concentration: Bupivacaine [1, 6]: 239.4 µM | Compound concentration: Pamoic acid [1, 6]: 120.2 µM | Compound concentration: Bupivacaine ([1]; 0.01 M PBS pH 7.4, 37° C., 1 h): 257.4 µM | Compound concentration: Pamoic acid ([1]; 0.01 M PBS pH 7.4, 37° C., 1 h): 127.8 µM | Compound concentration: Bupivacaine ([1]; 0.01 M PBS pH 7.4, 37° C., 2 h): 287.5 µM | Compound concentration: Pamoic acid ([1]; 0.01 M PBS pH 7.4, 37° C., 2 h): 141.5 µM | Compound concentration: Bupivacaine ([1]; 0.01 M PBS pH 7.4, 37° C., 6 h): 290.1 µM | Compound concentration: Pamoic acid ([1]; 0.01 M PBS pH 7.4, 37° C., 6 h): 146.7 µM | Compound concentration: Bupivacaine [1, 7]: 290.3 µM | Compound concentration: Pamoic acid [1, 7]: 143 µM | stability of the suspension (ratio between acid radical and basic group) ([1]; simulated body fluid): stable | solubility ([1]; simulated body fluid, 0.01 M PBS pH 7.4, 37° C.): about 0.3 mM | molar ratio of the solubility (bupivacaine to pamoic acid) ([2]; media at pH 5.5, pH 6.5, pH 7.4 and pH 8.0, remained for at least 72 hours): around 2.0 | Molar concentration of Bupivacaine [2, 8]: 0.050 mmol/L | Molar concentration of Pamoic acid [2, 8]: 0.020 mmol/L | Molar concentration of Bupivacaine [2, 9]: 0.070 mmol/L | Molar concentration of Pamoic acid [2, 9]: 0.034 mmol/L | Molar concentration of Bupivacaine [2, 10]: 0.140 mmol/L | Molar concentration of Pamoic acid [2, 10]: 0.070 mmol/L | Molar concentration of Bupivacaine [2, 11]: 0.196 mmol/L | Molar concentration of Pamoic acid [2, 11]: 0.092 mmol/L | Molar concentration of Bupivacaine [2, 12]: 0.198 mmol/L | Molar concentration of Pamoic acid [2, 12]: 0.094 mmol/L | Molar concentration of Bupivacaine [2, 13]: 0.198 mmol/L | Molar concentration of Pamoic acid [2, 13]: 0.092 mmol/L | Molar concentration of Bupivacaine [2, 14]: 0.198 mmol/L | Molar concentration of Pamoic acid [2, 14]: 0.094 mmol/L | Molar concentration of Bupivacaine [2, 15]: 0.198 mmol/L | Molar concentration of Pamoic acid [2, 15]: 0.092 mmol/L | Molar concentration of Bupivacaine [2, 16]: 0.192 mmol/L | Molar concentration of Pamoic acid [2, 16]: 0.088 mmol/L | Molar concentration of Bupivacaine [2, 17]: 0.196 mmol/L | Molar concentration of Pamoic acid [2, 17]: 0.092 mmol/L | Molar concentration of Bupivacaine [2, 18]: 0.198 mmol/L | Molar concentration of Pamoic acid [2, 18]: 0.092 mmol/L | Molar concentration of Bupivacaine [2, 19]: 0.190 mmol/L | Molar concentration of Pamoic acid [2, 19]: 0.084 mmol/L | Molar concentration of Bupivacaine [2, 20]: 0.046 mmol/L | Molar concentration of Pamoic acid [2, 20]: 0.024 mmol/L | Molar concentration of Bupivacaine [2, 21]: 0.076 mmol/L | Molar concentration of Pamoic acid [2, 21]: 0.038 mmol/L | Molar concentration of Bupivacaine [2, 22]: 0.138 mmol/L | Molar concentration of Pamoic acid [2, 22]: 0.076 mmol/L | Molar concentration of Bupivacaine [2, 23]: 0.202 mmol/L | Molar concentration of Pamoic acid [2, 23]: 0.106 mmol/L | Molar concentration of Bupivacaine [2, 24]: 0.204 mmol/L | Molar concentration of Pamoic acid [2, 24]: 0.108 mmol/L | Molar concentration of Bupivacaine [2, 25]: 0.202 mmol/L | Molar concentration of Pamoic acid [2, 25]: 0.106 mmol/L | Molar concentration of Bupivacaine [2, 26]: 0.198 mmol/L | Molar concentration of Pamoic acid [2, 26]: 0.104 mmol/L | Molar concentration of Bupivacaine [2, 27]: 0.198 mmol/L | Molar concentration of Pamoic acid [2, 27]: 0.106 mmol/L | Molar concentration of Bupivacaine [2, 28]: 0.198 mmol/L | Molar concentration of Pamoic acid [2, 28]: 0.106 mmol/L | Molar concentration of Bupivacaine [2, 29]: 0.202 mmol/L | Molar concentration of Pamoic acid [2, 29]: 0.106 mmol/L | Molar concentration of Bupivacaine [2, 30]: 0.200 mmol/L | Molar concentration of Pamoic acid [2, 30]: 0.106 mmol/L | Molar concentration of Bupivacaine [2, 31]: 0.196 mmol/L | Molar concentration of Pamoic acid [2, 31]: 0.100 mmol/L | Molar concentration of Bupivacaine [2, 32]: 0.038 mmol/L | Molar concentration of Pamoic acid [2, 32]: 0.020 mmol/L | Molar concentration of Bupivacaine [2, 33]: 0.080 mmol/L | Molar concentration of Pamoic acid [2, 33]: 0.042 mmol/L | Molar concentration of Bupivacaine [2, 34]: 0.192 mmol/L | Molar concentration of Pamoic acid [2, 34]: 0.100 mmol/L | Molar concentration of Bupivacaine [2, 35]: 0.240 mmol/L | Molar concentration of Pamoic acid [2, 35]: 0.134 mmol/L | Molar concentration of Bupivacaine [2, 36]: 0.246 mmol/L | Molar concentration of Pamoic acid [2, 36]: 0.134 mmol/L | Molar concentration of Bupivacaine [2, 37]: 0.242 mmol/L | Molar concentration of Pamoic acid [2, 37]: 0.134 mmol/L | Molar concentration of Bupivacaine [2, 38]: 0.234 mmol/L | Molar concentration of Pamoic acid [2, 38]: 0.13 mmol/L | Molar concentration of Bupivacaine [2, 39]: 0.232 mmol/L | Molar concentration of Pamoic acid [2, 39]: 0.128 mmol/L | Molar concentration of Bupivacaine [2, 40]: 0.226 mmol/L | Molar concentration of Pamoic acid [2, 40]: 0.124 mmol/L | Molar concentration of Bupivacaine [2, 41]: 0.226 mmol/L | Molar concentration of Pamoic acid [2, 41]: 0.124 mmol/L | Molar concentration of Bupivacaine [2, 42]: 0.230 mmol/L | Molar concentration of Pamoic acid [2, 42]: 0.126 mmol/L | Molar concentration of Bupivacaine [2, 43]: 0.224 mmol/L | Molar concentration of Pamoic acid [2, 43]: 0.120 mmol/L | Molar concentration of Bupivacaine [2, 44]: 0.036 mmol/L | Molar concentration of Pamoic acid [2, 44]: 0.020 mmol/L | Molar concentration of Bupivacaine [2, 45]: 0.092 mmol/L | Molar concentration of Pamoic acid [2, 45]: 0.050 mmol/L | Molar concentration of Bupivacaine [2, 46]: 0.252 mmol/L | Molar concentration of Pamoic acid [2, 46]: 0.138 mmol/L | Molar concentration of Bupivacaine [2, 47]: 0.328 mmol/L | Molar concentration of Pamoic acid [2, 47]: 0.182 mmol/L | Molar concentration of Bupivacaine [2, 48]: 0.336 mmol/L | Molar concentration of Pamoic acid [2, 48]: 0.186 mmol/L | Molar concentration of Bupivacaine [2, 49]: 0.338 mmol/L | Molar concentration of Pamoic acid [2, 49]: 0.192 mmol/L | Molar concentration of Bupivacaine [2, 50]: 0.338 mmol/L | Molar concentration of Pamoic acid [2, 50]: 0.190 mmol/L | Molar concentration of Bupivacaine [2, 51]: 0.334 mmol/L | Molar concentration of Pamoic acid [2, 51]: 0.186 mmol/L | Molar concentration of Bupivacaine [2, 52]: 0.326 mmol/L | Molar concentration of Pamoic acid [2, 52]: 0.182 mmol/L | Molar concentration of Bupivacaine [2, 53]: 0.328 mmol/L | Molar concentration of Pamoic acid [2, 53]: 0.186 mmol/L | Molar concentration of Bupivacaine [2, 54]: 0.336 mmol/L | Molar concentration of Pamoic acid [2, 54]: 0.186 mmol/L | Molar concentration of Bupivacaine [2, 55]: 0.336 mmol/L | Molar concentration of Pamoic acid [2, 55]: 0.184 mmol/L

CCCCN1CCCCC1C(=O)Nc1c(C)cccc1C (stereo not drawn) [bupivacaine hydrochloride]
AUC(0-t) [3]: 711 ng·h/mL | Cmax [3]: 330 ng/mL | Tmax [3]: 37.8 min | half-life [3]: 60 min
